Assays:
COLO 320 = assay: Antiproliferative effect against human COLO 320 colon adenocarcinoma cells; assay type: functional, cell-based
Daudi = assay: Antiproliferative effect against human Daudi Burkitt lymphoma cells; assay type: functional, cell-based
HL-60 = assay: Antiproliferative effect against human HL60 promyelocytic leukemia cells; assay type: functional, cell-based
LX-830 cell line [1] = assay: Antiproliferative effect against mouse LX830 lymphoma cells; assay type: functional, cell-based
NIH3T3 = assay: Antiproliferative effect against mouse NIH3T3 embryonic cells; assay type: functional, cell-based
CCRF S-180 = assay: Antiproliferative effect against mouse S180 sarcoma cells; assay type: functional, cell-based
U-937 [2] = assay: Antiproliferative effect against human U937 histiocytic lymphoma cells; assay type: functional, cell-based
U-937 [3] = assay: Rate of oxygen consumption of human U937 cells (10e7 cells) at 10 uM concentration was determined at 30degreeC, with control value 14.5; assay type: functional, cell-based
LX-830 cell line [4] = assay: Antiproliferative effect against mouse LX830 lymphoma cells; inactive; assay type: functional, cell-based
[5] = Redox potential from cyclic voltammogram; assay type: physicochemical
U-937 [6] = assay: Rate of oxygen consumption of human U937 cells (10e7 cells) at 200 uM concentration was determined at 30 degree C; assay type: functional, cell-based
[7] = Rate of oxidation by the compound at 0.44 mM versus 0.49 mM of reduced cytochrome was determined at 30 degree C
[8] = Rate of oxidation by the compound at 0.5 mM versus 0.24 mM of NADH was determined

IC50 (COLO 320) | IC50 (Daudi) | IC50 (HL-60) | IC50 (CCRF S-180) | IC50 (U-937 [2]) | E0 [5] | Oxidation rate [7] | Oxidation rate [8] | Substance | IC50 (LX-830 cell line [1]) | IC50 (NIH3T3) | Oxygen consumption rate (U-937 [3]) | IC50 (LX-830 cell line [4]) | Oxygen consumption rate (U-937 [6])
6.6 µM | 1.7 µM | 4.3 µM | 0.8 µM | 5.2 µM |  |  |  | CISPLATIN [listing 1 of 2 here] | 13.2 µM | 0.3 µM |  |  | 
 |  |  |  |  |  |  |  | CISPLATIN [listing 2 of 2 here] |  |  | 13.4 nM/min |  | 
> 200 µM | 79 µM | 75 µM | 120 µM | 196 µM | 0.46 |  |  | osmium(2+) ion bis(cyclopenta-1,3-diene) hexafluoro-phosphanuide iodide [listing 1 of 2 here] |  | 87 µM |  | Not Active | 
 |  |  |  |  |  | 824 nM/min | 8 µM/min | osmium(2+) ion bis(cyclopenta-1,3-diene) hexafluoro-phosphanuide iodide [listing 2 of 2 here] |  |  |  |  | 10.5 nM/min
